Measured values published in patent publication US11000033B2, “Ketone or oxime compound, and herbicide” (NISSAN CHEMICAL CORPORATION, priority 2014, dated 2021).

Key:
Format in all cases: in vivo
Scirpus juncoides [1] = experiment: Test Example 2: herbicidal activity, application during weed generation in submerged conditions (symbol B); settings: Table 23, grade 0-5 by criteria of Test Example 1
Procedure, shortened: (§1)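 Steps: fill pots with alluvial soil; add water to 4 cm depth; co-sow the three weeds; grow at 25° C. to 30° C. under glass; at 1–2 leaves, dose the floodwater with diluted emulsion; rate damage visually after 3 weeks.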

Veronica persica = experiment: Test Example 4: herbicidal effect by soil treatment (symbol R); settings: application herbicide amount 320 g/ha
Excerpt: (§2) Herbicidal Effect Test by Soil Treatment
(§3) Sterilized diluvial soil was placed in a plastic box having a length of 21 cm, a width of 13 cm, and a depth of 7 cm. Each of the seeds of Digitaria ciliaris, Setaria viridis, Echinochloa crus-galli var. crus-galli, Avena fatua, Alopecurus myosuroides, Lolium multiflorum Lam., Apera spica-venti, Abutilon theophrasti, Amaranthus retroflexus, Chenopodium album, Stellaria media, Galium spurium, Veronica persica, corn, soybean, rice, wheat, beet, and rapeseed was sowed in a spot-like manner and was covered with the soil of a thickness of about 1.5 cm. Subsequently, the emulsion agent of the compound present invention prepared in accordance with Formulation Example 2 was diluted with water so as to be a predetermined herbicide amount and the diluted emulsion agent was uniformly applied to the surface of the soil with a small-size spray. The plastic box was placed in a greenhouse of 25° C. to 30° C. to grow plant. 3 weeks later from the herbicide application, the effect to each plant was investigated in accordance with the criteria of Test Example 1.

Abutilon theophrasti = experiment: Test Example 4: herbicidal effect by soil treatment (symbol M)
Excerpt: as §2, §3

Apera spica-venti [2] = experiment: Test Example 5: herbicidal effect by foliage application, plastic box (symbol L); settings: 3 weeks after application
Procedure, shortened: (§4)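 Post-emergence spray; diluvial soil (sterilized), ~1.5 cm seed cover; greenhouse 25–30° C; 14-day-old plants; water-diluted emulsion at predetermined dose; visual score at 3 wk post-treatment.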

Avena fatua = experiment: Test Example 4: herbicidal effect by soil treatment (symbol I)
Excerpt: as §2, §3

[3] = tested on: Echinochloa oryzacola Vasing.; experiment: Test Example 2: herbicidal activity, application during weed generation in submerged conditions (symbol A); settings: Table 23, grade 0-5 by criteria of Test Example 1
Procedure, shortened: as §1

[4] = tested on: Echinochloa crus-galli var. crus-galli; experiment: Test Example 3: herbicidal effect by foliage application, Wagner pot (symbol H); settings: for H (Echinochloa crus-galli var. crus-galli) herbicidal effect grade: Table 24
Procedure, shortened: (§5)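 Post-emergence, paddy-type test: seedlings 14 d old in shallow-flooded (0.1–0.5 cm) alluvial soil, 25–30 °C greenhouse. Emulsion diluted to target rate, sprayed on leaves. Read-out: visual effect on each species at 3 weeks, per set criteria.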

Alopecurus myosuroides [5] = experiment: Test Example 4: herbicidal effect by soil treatment (symbol J)
Excerpt: as §2, §3

Scirpus juncoides [6] = experiment: Test Example 1: herbicidal activity, application before weed generation in submerged conditions (symbol B)
Procedure, shortened: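 In a flooded pot test with alluvial soil, the emulsion-formulated compound was diluted with water to a predetermined amount and applied to the floodwater immediately on the sowing day. Pots were held in a greenhouse at 25–30 °C for 3 weeks before each weed was rated.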

Cyperus difformis = experiment: Test Example 3: herbicidal effect by foliage application, Wagner pot (symbol E); settings: for E herbicidal effect grade: Table 24
Procedure, shortened: as §5

rapeseed = experiment: Test Example 5: effect on crop by foliage application, plastic box (symbol g); settings: 3 weeks after application
Procedure, shortened: (§6)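 Box culture: sterile diluvial soil, seeds spot-sown, ~1.5 cm cover, raised under glass at 25–30° C.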

Alopecurus myosuroides [7] = experiment: Test Example 5: herbicidal effect by foliage application, plastic box (symbol J); settings: 3 weeks after application
Procedure, shortened: as §4

Setaria viridis = experiment: Test Example 4: herbicidal effect by soil treatment (symbol G)
Excerpt: as §2, §3

corn = experiment: Test Example 5: effect on crop by foliage application, plastic box (symbol c); settings: 3 weeks after application
Procedure, shortened: as §6

Apera spica-venti [8] = experiment: Test Example 4: herbicidal effect by soil treatment (symbol L)
Excerpt: as §2, §3

[9] = application herbicide amount 320 g/ha
[10] = application herbicide amount 269 g/ha

SMILES: CON=C(CC1CC(OC(=O)C(C)(C)C)=C(c2c(C)cc(C)cc2OC)C1=O)C1CC1 (mixture of isomers) [13-006]
- Herbicidal effect grade, B: Scirpus juncoides (Scirpus juncoides [1]; [9]): 3 (Herbicidal ratio of 40% or higher and lower than 70%)
- R: Veronica persica, herbicidal effect grade (Veronica persica): 0 (Herbicidal ratio of 5% or lower (almost no effect))
- M: Abutilon theophrasti, herbicidal effect grade (Abutilon theophrasti; [9]): 5 (Herbicidal ratio of 90% or more (almost completely withered))
- L: Apera spica-venti, herbicidal effect grade (Apera spica-venti [2]; 320 g/ha): 5 (Herbicidal ratio of 90% or more (almost completely withered))
- I: Avena fatua, herbicidal effect grade (Avena fatua; [9]): 0 (Herbicidal ratio of 5% or lower (almost no effect))
- Herbicidal effect grade, A: Echinochloa oryzacola Vasing. [3, 9]: 5 (Herbicidal ratio of 90% or more (almost completely withered))
- H (Echinochloa crus-galli var. crus-galli) herbicidal effect grade [4, 9]: 5 (Herbicidal ratio of 90% or more (almost completely withered))
- J: Alopecurus myosuroides, herbicidal effect grade (Alopecurus myosuroides [5]; [9]): 5 (Herbicidal ratio of 90% or more (almost completely withered))
- B (Scirpus juncoides) herbicidal effect grade (Scirpus juncoides [6]; [9]): 5 (Herbicidal ratio of 90% or more (almost completely withered))
- E herbicidal effect grade (Cyperus difformis; [9]): 5 (Herbicidal ratio of 90% or more (almost completely withered))
- g: rapeseed, effect on crop grade (rapeseed; 320 g/ha): 4 (Herbicidal ratio of 70% or higher and lower than 90%)
- J: Alopecurus myosuroides, herbicidal effect grade (Alopecurus myosuroides [7]; 320 g/ha): 5 (Herbicidal ratio of 90% or more (almost completely withered))
- G: Setaria viridis, herbicidal effect grade (Setaria viridis; [9]): 5 (Herbicidal ratio of 90% or more (almost completely withered))
- c: corn, effect on crop grade (corn; 320 g/ha): 5 (Herbicidal ratio of 90% or more (almost completely withered))

SMILES: CC(=O)C(C)C1CC(O)=C(c2c(C)cc(C)cc2C)C1=O (centres unmarked) [2-005]
- Herbicidal effect grade, B: Scirpus juncoides (Scirpus juncoides [1]; [10]): 0 (Herbicidal ratio of 5% or lower (almost no effect))
- M: Abutilon theophrasti, herbicidal effect grade (Abutilon theophrasti; [10]): 0 (Herbicidal ratio of 5% or lower (almost no effect))
- L: Apera spica-venti, herbicidal effect grade (Apera spica-venti [2]; 269 g/ha): 3 (Herbicidal ratio of 40% or higher and lower than 70%)
- I: Avena fatua, herbicidal effect grade (Avena fatua; [10]): 0 (Herbicidal ratio of 5% or lower (almost no effect))
- Herbicidal effect grade, A: Echinochloa oryzacola Vasing. [3, 10]: 3 (Herbicidal ratio of 40% or higher and lower than 70%)
- L: Apera spica-venti, herbicidal effect grade (Apera spica-venti [8]; [10]): 1 (Herbicidal ratio of 5% or higher and lower than 20%)
- herbicidal effect on H (Echinochloa crus-galli var. crus-galli), grade 0-5 [4, 10]: 5 (Herbicidal ratio of 90% or more (almost completely withered))
- J: Alopecurus myosuroides, herbicidal effect grade (Alopecurus myosuroides [5]; [10]): 4 (Herbicidal ratio of 70% or higher and lower than 90%)
- Herbicidal effect grade, B: Scirpus juncoides (Scirpus juncoides [6]; [10]): 0 (Herbicidal ratio of 5% or lower (almost no effect))
- herbicidal effect on E, grade 0-5 (Cyperus difformis; [10]): 4 (Herbicidal ratio of 70% or higher and lower than 90%)
- g: rapeseed, effect on crop grade (rapeseed; 269 g/ha): 4 (Herbicidal ratio of 70% or higher and lower than 90%)
- J: Alopecurus myosuroides, herbicidal effect grade (Alopecurus myosuroides [7]; 269 g/ha): 5 (Herbicidal ratio of 90% or more (almost completely withered))
- G: Setaria viridis, herbicidal effect grade (Setaria viridis; [10]): 4 (Herbicidal ratio of 70% or higher and lower than 90%)
- c: corn, effect on crop grade (corn; 269 g/ha): 3 (Herbicidal ratio of 40% or higher and lower than 70%)

SMILES: CON=C(CC1CC(O)=C(c2c(C)cc(C)cc2OC)C1=O)C1CC1 (mixture of isomers) [13-002]
- Herbicidal effect grade, B: Scirpus juncoides (Scirpus juncoides [1]; [9]): 5 (Herbicidal ratio of 90% or more (almost completely withered))
- R: Veronica persica, herbicidal effect grade (Veronica persica): 0 (Herbicidal ratio of 5% or lower (almost no effect))
- M: Abutilon theophrasti, herbicidal effect grade (Abutilon theophrasti; [9]): 0 (Herbicidal ratio of 5% or lower (almost no effect))
- L: Apera spica-venti, herbicidal effect grade (Apera spica-venti [2]; 320 g/ha): 5 (Herbicidal ratio of 90% or more (almost completely withered))
- I: Avena fatua, herbicidal effect grade (Avena fatua; [9]): 4 (Herbicidal ratio of 70% or higher and lower than 90%)
- Herbicidal effect grade, A: Echinochloa oryzacola Vasing. [3, 9]: 5 (Herbicidal ratio of 90% or more (almost completely withered))
- H (Echinochloa crus-galli var. crus-galli) herbicidal effect grade [4, 9]: 5 (Herbicidal ratio of 90% or more (almost completely withered))
- J: Alopecurus myosuroides, herbicidal effect grade (Alopecurus myosuroides [5]; [9]): 4 (Herbicidal ratio of 70% or higher and lower than 90%)
- B (Scirpus juncoides) herbicidal effect grade (Scirpus juncoides [6]; [9]): 4 (Herbicidal ratio of 70% or higher and lower than 90%)
- E herbicidal effect grade (Cyperus difformis; [9]): 5 (Herbicidal ratio of 90% or more (almost completely withered))
- g: rapeseed, effect on crop grade (rapeseed; 320 g/ha): 4 (Herbicidal ratio of 70% or higher and lower than 90%)
- J: Alopecurus myosuroides, herbicidal effect grade (Alopecurus myosuroides [7]; 320 g/ha): 5 (Herbicidal ratio of 90% or more (almost completely withered))
- G: Setaria viridis, herbicidal effect grade (Setaria viridis; [9]): 5 (Herbicidal ratio of 90% or more (almost completely withered))
- c: corn, effect on crop grade (corn; 320 g/ha): 5 (Herbicidal ratio of 90% or more (almost completely withered))

SMILES: C=CCOC1=C(c2c(C)cc(C)cc2C)C(=O)C(CC(C)=NOC)C1 (centres unmarked) [1-007]
- Herbicidal effect grade, B: Scirpus juncoides (Scirpus juncoides [1]; [9]): 0 (Herbicidal ratio of 5% or lower (almost no effect))
- M (Abutilon theophrasti) herbicidal effect grade (Abutilon theophrasti; [9]): 0 (Herbicidal ratio of 5% or lower (almost no effect))
- L: Apera spica-venti, herbicidal effect grade (Apera spica-venti [2]; 320 g/ha): 1 (Herbicidal ratio of 5% or higher and lower than 20%)
- I (Avena fatua) herbicidal effect grade (Avena fatua; [9]): 0 (Herbicidal ratio of 5% or lower (almost no effect))
- Herbicidal effect grade, A: Echinochloa oryzacola Vasing. [3, 9]: 0 (Herbicidal ratio of 5% or lower (almost no effect))
- L (Apera spica-venti) herbicidal effect grade (Apera spica-venti [8]; [9]): 3 (Herbicidal ratio of 40% or higher and lower than 70%)
- herbicidal effect on H (Echinochloa crus-galli var. crus-galli), grade 0-5 [4, 9]: 0 (Herbicidal ratio of 5% or lower (almost no effect))
- J (Alopecurus myosuroides) herbicidal effect grade (Alopecurus myosuroides [5]; [9]): 0 (Herbicidal ratio of 5% or lower (almost no effect))
- Herbicidal effect grade, B: Scirpus juncoides (Scirpus juncoides [6]; [9]): 0 (Herbicidal ratio of 5% or lower (almost no effect))
- herbicidal effect on E, grade 0-5 (Cyperus difformis; [9]): 0 (Herbicidal ratio of 5% or lower (almost no effect))
- g: rapeseed, effect on crop grade (rapeseed; 320 g/ha): 0 (Herbicidal ratio of 5% or lower (almost no effect))
- J: Alopecurus myosuroides, herbicidal effect grade (Alopecurus myosuroides [7]; 320 g/ha): 3 (Herbicidal ratio of 40% or higher and lower than 70%)
- G (Setaria viridis) herbicidal effect grade (Setaria viridis; [9]): 0 (Herbicidal ratio of 5% or lower (almost no effect))
- c: corn, effect on crop grade (corn; 320 g/ha): 0 (Herbicidal ratio of 5% or lower (almost no effect))
